Test results from US8039496B2, “Therapeutic compounds” (Allergan, Inc., priority 2007, dated 2011).
Read-outs that look alike come from different tables or passages of the source. One block for each compound: values may come before it.

How the values were obtained:
hEP2 [1] = target: T1, hEP2 (Homo sapiens, UniProt P43116); assay: hEP2 binding (Ki)
From the text: (§1) U.S. patent application Ser. No. 11/553,143, filed on Oct. 26, 2006, describes the methods used to obtain the in vitro data in the table below.

hEP4 [2] = target: T2, hEP4 (Homo sapiens, UniProt P35408); assay: hEP4 binding (Ki)
From the text: as §1

hEP2 [3] = target: T1, hEP2; assay: hEP2 cAMP functional assay; assay type: cell-based
From the text: as §1

hEP4 [4] = target: T2, hEP4; assay: hEP4 flipr functional assay; assay type: cell-based
From the text: as §1

hEP2 [5] = target: T1, hEP2; assay: hEP2 flipr functional assay; assay type: cell-based
From the text: as §1

normotensive dogs [6] = assay: Ocular surface hyperemia in normotensive dogs; assay type: in vivo; set-up: scale not given here; settings: once daily for 5 days
Description: (§2) U.S. Pat. No. 7,091,231 describes the methods used for these in vivo tests. 5-{3-[1R,2S,3R,5R)-5-Chloro-2-(3,5-dichloro-phenoxymethyl)-3-hydroxy-cyclopentyl]-propyl}-thiophene-2-carboxylic acid was tested at multiple concentrations in normotensive dogs, dosing once daily for 5 days. At 0.1%, the maximum intraocular pressure (IOP) decrease from baseline was 7.5 mmHg (48%) at 30 h; the maximum ocular surface hyperemia (OSH) score was 2.75 at 26 h. At 0.01%, the maximum IOP decrease from baseline was 7.5 mmHg (43%) at 76 h; the maximum OSH score was 2.0 at 26 h. At 0.005%, the maximum IOP decrease from baseline was 6.6 mmHg (35%) at 78 h; the maximum OSH score was 1.75 at 74 h. This compound was also tested in laser-induced hypertensive monkeys, using one single day dose. At 0.01%, the maximum IOP decrease from baseline was 20.2 mmHg (53%) at 24 h.

normotensive dogs [7] = assay: Intraocular pressure in normotensive dogs; assay type: in vivo; settings: Canis lupus familiaris, topical, 120 h, once daily for 5 days, read-out: maximum IOP decrease from baseline (percent)
Description: as §2

[8] = the 3rd table, read-out: EP2 data Ki
[9] = the 3rd table, read-out: EP4 data KI
[10] = the 3rd table, read-out: EP2 data cAMP EC50
[11] = the 3rd table, read-out: EP4 data flipr EC50
[12] = the 3rd table, read-out: EP2 data flipr EC50
[13] = the 2nd table, read-out: hEP2 Ki
[14] = the 2nd table, read-out: hEP4 Ki
[15] = the 2nd table, read-out: hEP2 cAMP EC50
[16] = the 2nd table, read-out: hEP4 flipr EC50
[17] = the 2nd table, read-out: hEP2 flipr EC50

T1 sequence (P43116 whole entry): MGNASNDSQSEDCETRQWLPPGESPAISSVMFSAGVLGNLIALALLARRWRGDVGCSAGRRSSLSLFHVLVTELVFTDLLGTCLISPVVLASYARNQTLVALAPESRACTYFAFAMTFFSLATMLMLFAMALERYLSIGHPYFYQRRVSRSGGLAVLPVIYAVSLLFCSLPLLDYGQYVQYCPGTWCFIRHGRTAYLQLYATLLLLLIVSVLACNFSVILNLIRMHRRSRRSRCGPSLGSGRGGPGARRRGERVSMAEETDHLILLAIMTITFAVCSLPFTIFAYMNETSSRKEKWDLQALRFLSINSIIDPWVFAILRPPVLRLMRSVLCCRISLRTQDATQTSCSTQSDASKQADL
T2 sequence (P35408 whole entry): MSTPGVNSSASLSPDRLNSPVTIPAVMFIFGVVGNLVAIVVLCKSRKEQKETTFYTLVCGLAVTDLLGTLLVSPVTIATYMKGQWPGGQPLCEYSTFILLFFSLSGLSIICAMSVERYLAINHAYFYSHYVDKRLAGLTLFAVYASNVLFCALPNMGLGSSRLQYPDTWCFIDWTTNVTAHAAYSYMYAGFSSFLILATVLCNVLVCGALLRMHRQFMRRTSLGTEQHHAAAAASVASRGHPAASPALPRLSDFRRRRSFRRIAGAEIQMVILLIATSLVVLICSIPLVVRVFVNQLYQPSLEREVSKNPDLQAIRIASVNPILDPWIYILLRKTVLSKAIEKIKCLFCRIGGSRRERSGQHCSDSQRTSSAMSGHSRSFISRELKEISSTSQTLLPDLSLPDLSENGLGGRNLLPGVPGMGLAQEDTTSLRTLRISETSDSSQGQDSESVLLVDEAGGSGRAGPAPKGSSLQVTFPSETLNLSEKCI

Ki (hEP2 [1]; [13]): 12 nM
Ki (hEP4 [2]; [14]): 197 nM
EC50 (hEP2 [3]; [15]): 5.2 nM
EC50 (hEP4 [4]; [16]): > 10000 nM
EC50 (hEP2 [5]; [17]): 6750 nM
SMILES: O=C(O)c1ccc(CCC[C@@H]2[C@@H](COc3cc(Cl)cc(CO)c3)CC[C@H]2Cl)s1 [5-{3-[(1R,2R,5S)-2-Chloro-5-(3-chloro-5-hydroxymethyl-phenoxymethyl)-cyclopentyl]-propyl}-thiophene-2-carboxylic acid]

Ki (hEP2 [1]; [13]): 39 nM
Ki (hEP4 [2]; [14]): 179 nM
EC50 (hEP2 [3]; [15]): 2 nM
EC50 (hEP4 [4]; [16]): > 10000 nM
EC50 (hEP2 [5]; [17]): 297 nM
SMILES: O=C(O)c1ccc(CCC[C@H]2C(=O)CC[C@@H]2COc2cc(Cl)cc(CO)c2)s1 [5-{3-[(1R,2S)-2-(3-Chloro-5-hydroxymethyl-phenoxymethyl)-5-oxo-cyclopentyl]-propyl}-thiophene-2-carboxylic acid]

maximum ocular surface hyperemia (OSH) score (normotensive dogs [6]; 0.1%): 1.9
SMILES: O=C(O)c1ccc(CCC[C@@H]2[C@@H](COc3cc(Cl)cc(CO)c3)[C@H](O)C[C@H]2Cl)s1 [Example 5, 5-{3-[(1R,2S,3R,5R)-5-Chloro-2-(3-chloro-5-hydroxymethyl-phenoxymethyl)-3-hydroxy-cyclopentyl]-propyl}-thiophene-2-carboxylic acid]
inhibition in vivo at 0.1 % (normotensive dogs [7]): 34%

maximum ocular surface hyperemia (OSH) score (normotensive dogs [6]; 0.1%): 1.9
SMILES: CC(C)OC(=O)c1ccc(CCC[C@@H]2[C@@H](COc3cc(Cl)cc(CO)c3)[C@H](O)C[C@H]2Cl)s1 [Example 14, Isopropyl 5-{3-[(1R,2S,3R,5R)-5-Chloro-2-(3-chloro-5-hydroxymethyl-phenoxymethyl)-3-hydroxy-cyclopentyl]-propyl}-thiophene-2-carboxylate]
inhibition in vivo at 0.1 % (normotensive dogs [7]): 36%

Ki (hEP2 [1]; [13]): 2 nM
Ki (hEP4 [2]; [14]): 366 nM
EC50 (hEP2 [3]; [15]): 0.12 nM
EC50 (hEP4 [4]; [16]): > 10000 nM
EC50 (hEP2 [5]; [17]): 7010 nM
SMILES: O=C(O)c1ccc(CCC[C@@H]2[C@@H](COc3cc(Cl)cc(Cl)c3)[C@H](O)C[C@H]2Cl)s1 [drawing 35, 5-{3-[(1R,2S,3R,5R)-5-Chloro-2-(3,5-dichloro-phenoxymethyl)-3-hydroxy-cyclopentyl]-propyl}-thiophene-2-carboxylic acid]

Ki (hEP2 [1]; [13]): 3 nM
EC50 (hEP2 [3]; [15]): 0.26 nM
EC50 (hEP4 [4]; [16]): > 10000 nM
EC50 (hEP2 [5]; [17]): 3280 nM
SMILES: O=C(O)c1ccc(CCC[C@@H]2[C@@H](COc3cc(Cl)cc(CO)c3)[C@H](O)C[C@H]2Cl)s1 [drawing 36, 5-{3-[(1R,2S,3R,5R)-5-Chloro-2-(3-chloro-5-hydroxymethyl-phenoxymethyl)-3-hydroxy-cyclopentyl]-propyl}-thiophene-2-carboxylic acid]

The remaining lines, values behind:

SMILES: CCc1cc(OC[C@@H]2[C@@H](CCCc3ccc(C(=O)O)s3)[C@H](Cl)C[C@H]2O)ccc1Cl [5-(3-((1R,2S,3R,5R)-5-chloro-2-((4-chloro-3-ethylphenoxy)methyl)-3-hydroxycyclopentyl)propyl)thiophene-2-carboxylic acid]
Ki (hEP2 [1]; [8]): 2 nM
Ki (hEP4 [2]; [9]): 177 nM
EC50 (hEP2 [3]; [10]): 0.4 nM
EC50 (hEP4 [4]; [11]): 26500 nM
EC50 (hEP2 [5]; [12]): 31400 nM

SMILES: CCCCCCCc1ccc(OC[C@@H]2[C@@H](CCCc3ccc(C(=O)O)s3)[C@H](Cl)C[C@H]2O)cc1 [5-(3-((1R,2S,3R,5R)-5-chloro-2-((4-heptylphenoxy)methyl)-3-hydroxycyclopentyl)propyl)thiophene-2-carboxylic acid]
Ki (hEP2 [1]; [8]): 378 nM
Ki (hEP4 [2]; [9]): 4520 nM
EC50 (hEP2 [3]; [10]): 46 nM
EC50 (hEP4 [4]; [11]): > 10000 nM
EC50 (hEP2 [5]; [12]): 6820 nM

SMILES: O=C(O)c1ccc(CCC[C@@H]2[C@@H](COc3ccc4c(c3)CCCC4)[C@H](O)C[C@H]2Cl)s1 [5-(3-((1R,2S,3R,5R)-5-chloro-3-hydroxy-2-((5,6,7,8-tetrahydronaphthalen-2-yloxy)methyl)cyclopentyl)propyl)thiophene-2-carboxylic acid]
Ki (hEP2 [1]; [8]): 38 nM
Ki (hEP4 [2]; [9]): 800 nM
EC50 (hEP2 [3]; [10]): 12 nM
EC50 (hEP4 [4]; [11]): > 10000 nM
EC50 (hEP2 [5]; [12]): 2490 nM

SMILES: O=C(O)c1ccc(CCC[C@@H]2[C@@H](COc3ccc4ccccc4c3)[C@H](O)C[C@H]2Cl)s1 [5-(3-((1R,2S,3R,5R)-5-chloro-3-hydroxy-2-((naphthalen-2-yloxy)methyl)cyclopentyl)propyl)thiophene-2-carboxylic acid]
Ki (hEP2 [1]; [8]): 3 nM
Ki (hEP4 [2]; [9]): 227 nM
EC50 (hEP2 [3]; [10]): 3 nM
EC50 (hEP4 [4]; [11]): > 10000 nM
EC50 (hEP2 [5]; [12]): > 10000 nM

SMILES: O=C(O)c1ccc(CCC[C@@H]2[C@@H](COc3cc(Cl)cc(Cl)c3)[C@H](O)C[C@H]2F)s1 [5-{3-[(1R,2S,3R,5R)-2-(3,5-Dichloro-phenoxymethyl)-5-fluoro-3-hydroxy-cyclopentyl]-propyl}-thiophene-2-carboxylic acid]
Ki (hEP2 [1]; [13]): 8 nM
Ki (hEP4 [2]; [14]): 310 nM
EC50 (hEP2 [3]; [15]): 0.7 nM
EC50 (hEP4 [4]; [16]): > 10000 nM
EC50 (hEP2 [5]; [17]): 83 nM

SMILES: O=C(O)CCC/C=C\C[C@@H]1[C@@H](COc2cc(Cl)cc(Cl)c2)[C@H](O)C[C@H]1Cl [(Z)-7-[(1R,2S,3R,5R)-5-Chloro-2-(3,5-dichloro-phenoxymethyl)-3-hydroxy-cyclopentyl]-hept-5-enoic acid]
maximum ocular surface hyperemia (OSH) score (normotensive dogs [6]; 0.05%): 0.6
maximum ocular surface hyperemia (OSH) score (normotensive dogs [6]; 0.1%): 1.3

SMILES: CC(=O)OCCc1cc(Cl)cc(OC[C@@H]2[C@@H](C/C=C\CCCC(=O)O)[C@H](Cl)C[C@H]2O)c1 [(Z)-7-{(1R,2S,3R,5R)-2-[3-(2-Acetoxy-ethyl)-5-chloro-phenoxymethyl]-5-chloro-3-hydroxy-cyclopentyl}-hept-5-enoic acid]
Ki (hEP2 [1]; [13]): 82 nM
EC50 (hEP2 [3]; [15]): 18 nM
EC50 (hEP2 [5]; [17]): 4990 nM

SMILES: Cc1cc(C)cc(OC[C@@H]2[C@@H](CCCc3ccc(C(=O)O)s3)[C@H](Cl)C[C@H]2O)c1 [Example 6, 5-{3-[(1R,2S,3R,5R)-5-Chloro-2-(3,5-dimethyl-phenoxymethyl)-3-hydroxy-cyclopentyl]-propyl}-thiophene-2-carboxylic acid]
inhibition in vivo at 0.01 % (normotensive dogs [7]): 33%
maximum ocular surface hyperemia (OSH) score (normotensive dogs [6]; 0.01%): 1.9

SMILES: N#C[C@@H]1C[C@@H](O)[C@H](COc2cc(Cl)cc(Cl)c2)[C@H]1CCCc1ccc(C(=O)O)s1 [Example 9, 5-{3-[(1S,2S,3R,5R)-5-Cyano-2-(3,5-dichloro-phenoxymethyl)-3-hydroxy-cyclopentyl]-propyl}-thiophene-2-carboxylic acid]
inhibition in vivo at 0.01 % (normotensive dogs [7]): 17%
maximum ocular surface hyperemia (OSH) score (normotensive dogs [6]; 0.01%): 1.2

SMILES: Cc1cc(C)cc(OC[C@@H]2[C@@H](CCCc3ccc(C(=O)O)s3)[C@H](Cl)C[C@H]2O)c1 [drawing 37, 5-{3-[(1R,2S,3R,5R)-5-Chloro-2-(3,5-dimethyl-phenoxymethyl)-3-hydroxy-cyclopentyl]-propyl}-thiophene-2-carboxylic acid]
Ki (hEP2 [1]; [13]): 2 nM
Ki (hEP4 [2]; [14]): 158 nM
EC50 (hEP2 [3]; [15]): 0.2 nM
EC50 (hEP4 [4]; [16]): 2940 nM
EC50 (hEP2 [5]; [17]): 31 nM

SMILES: N#C[C@@H]1C[C@@H](O)[C@H](COc2cc(Cl)cc(Cl)c2)[C@H]1CCCc1ccc(C(=O)O)s1 [drawing 40, 5-{3-[(1S,2S,3R,5R)-5-Cyano-2-(3,5-dichloro-phenoxymethyl)-3-hydroxy-cyclopentyl]-propyl}-thiophene-2-carboxylic acid]
Ki (hEP2 [1]; [13]): 3 nM
Ki (hEP4 [2]; [14]): 149 nM
EC50 (hEP2 [3]; [15]): 0.2 nM
EC50 (hEP4 [4]; [16]): > 10000 nM
EC50 (hEP2 [5]; [17]): 15 nM
